Source: patent US20150223675A1, “LUMINAL ADMINISTRATION OF TAG MOLECULES FOR DIAGNOSTIC APPLICATIONS” (GIVEN IMAGING LTD., priority 2012, published 2015)
Values joined by “and” are separate entries in the source; they are usually repeats but may differ in a detail not shown here. Identical values can stand only once.

Tests used:
[1] = test system: human colorectal tumors; experiment: Luminal (rectal, minicolonoscope) administration of dye to orthotopic mice; fluorescence of tumor and surrounding colon tissue by fluorescent camera, with histopathology; format: in vivo, mouse; settings: for fluorescent labeling of tumor exposed to the colon lumen: tumor confirmed by histopathology
Procedure: Orthotopic mice with human colorectal tumors in their colons were used for […] administration of the IR-783 derivative—IR-783-S-PH-COOH. 4 μg of the IR-783-S-PH-COOH dissolved in 200 μl PBS were introduced into the colon of the mouse via minicolonoscope inserted through the rectum. The IR-783-S-PH-COOH solution was incubated in the colon for 20 minutes and then washed out with 5 ml PBS inserted through the rectum. Four hours later, mice were sacrificed and the fluorescence of the tumor and the surrounding colon tissue was measured by a fluorescent camera setup. Histopathological examination was performed on paraffin fixed colonic tissue specimens.
Orthotopic mice with human colorectal tumors in their colons were used for luminal administration of IR-783. 4 μg of IR-783 dissolved in 200 μl PBS were introduced into the colon of the mouse via a minicolonoscope inserted through the rectum. The IR-783 solution was incubated in the colon for 20 minutes and then washed out with 5 ml of PBS. 4 h later, the mice were sacrificed and the fluorescence of the tumor and the surrounding colon was measured by a fluorescent camera setup. Histopathological examination was performed on paraffin fixed colonic tissue specimens.

[2] = test system: tumors; settings: 24 hours after dye administration by injection; prior art; cited from earlier work
[3] = Gastric gavage of dye to mice; organ fluorescence (liver, spleen, heart, lungs, kidneys, brain) by fluorescent camera; format: in vivo; settings: 5 hours later
Procedure: 4 μg of IR-783 dissolved in 200 μl PBS were introduced into mice stomach by gastric gavage. Five hours later, the mice were sacrificed and liver, spleen, heart, lungs, kidneys and brain were collected and measured for fluorescence by a fluorescent camera setup. […] Grey levels of the organs are indicated by the numbers on the fluorescent pictures next to the imaged organs, e.g., grey level in the liver was 4000 in two mice and 2500 in a third mouse, and grey levels in the kidneys were 3500, 200 and 1200, respectively.

[4] = 4 μg in 200 μl PBS into colon, 20 min incubation, 4 h later
[5] = 4 μg in 200 μl PBS by gastric gavage, individual mice

| Molecule | fluorescent labeling of tumor exposed to the colon lumen [1, 4] | fluorescent labeling of tumors developed below the murine mucosal layer (not exposed to colon lumen) ([1]; 4 μg into colon, 20 min incubation, 4 h later, FIG. 6B) | dye concentration in tumors compared to normal body tissue [2] | organs in which fluorescence was detected ([3]; 4 μg by gastric gavage, liver, spleen, heart, lungs, kidneys, brain examined) | grey level in the liver [3, 5] | grey levels in the kidneys [3, 5] | tumor to background ratio ([1]; 4 μg in 200 μl PBS into colon, 20 min incubation, washed out, measured 4 h later, 1 second exposure, histopathologically confirmed tumor) | fluorescent labeling of non-cancerous lymphatic tissue region ([1]; 4 μg into colon, 4 h later, suspected region with no tumor cells) |
| --- | --- | --- | --- | --- | --- | --- | --- | --- |
| CC1(C)C(=CC=C2CCCC(C=CC3=[N+](CCCCS(=O)(=O)[O-])c4ccccc4C3(C)C)=C2Cl)N(CCCCS(=O)(=O)[O-])c2ccccc21.[Na+] [IR-783] | intensely labeled | not labeled | much higher in tumors | detected in the liver and kidneys | 4000 and 2500 | 3500 and 200 and 1200 | – | – |
| IR-783-S-PH-COOH | intensely labeled | – | – | – | – | – | 60 | not labeled |
